pEC50, pIC50: −log10 of the molar value. Like-named read-outs stand apart in the source and are kept apart here.

One assay deals with human mOR (Homo sapiens (Human), UniProt P35372). Nature of the assay: cell-based.
For the next assay, the target named is human dOR (Homo sapiens (Human), UniProt P41143). Nature of the assay: cell-based. The following applies: dOR cAMP Agonist Assay EC50, CHO Tag-lite human dOR stable cell line; forskolin.
Another assay addresses kOR (OPRK1) (Homo sapiens (Human), UniProt P41145). The assay can be described thus: KOR β-Arrestin antagonist assay (Tango OPRK1-bla U2OS cells). In kind it is cell-based. The source says: KOR β-Arrestin Agonist and Antagonist assays were preformed using the Tango™ OPRK1-bla U2OS cells from Invitrogen and purchased from ThermoFisher, catalog number K1576.

Sequence of human dOR (P41143 whole entry): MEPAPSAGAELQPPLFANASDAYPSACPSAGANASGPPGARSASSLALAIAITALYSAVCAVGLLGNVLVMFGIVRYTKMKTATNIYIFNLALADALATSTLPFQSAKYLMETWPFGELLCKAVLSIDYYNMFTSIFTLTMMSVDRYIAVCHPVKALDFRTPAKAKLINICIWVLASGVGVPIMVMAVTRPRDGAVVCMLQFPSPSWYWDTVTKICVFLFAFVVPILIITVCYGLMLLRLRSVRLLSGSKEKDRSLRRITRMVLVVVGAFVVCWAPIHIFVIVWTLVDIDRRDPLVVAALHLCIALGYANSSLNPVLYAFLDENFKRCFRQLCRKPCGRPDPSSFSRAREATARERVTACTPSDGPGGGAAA
Sequence of kOR (OPRK1) (P41145 whole entry): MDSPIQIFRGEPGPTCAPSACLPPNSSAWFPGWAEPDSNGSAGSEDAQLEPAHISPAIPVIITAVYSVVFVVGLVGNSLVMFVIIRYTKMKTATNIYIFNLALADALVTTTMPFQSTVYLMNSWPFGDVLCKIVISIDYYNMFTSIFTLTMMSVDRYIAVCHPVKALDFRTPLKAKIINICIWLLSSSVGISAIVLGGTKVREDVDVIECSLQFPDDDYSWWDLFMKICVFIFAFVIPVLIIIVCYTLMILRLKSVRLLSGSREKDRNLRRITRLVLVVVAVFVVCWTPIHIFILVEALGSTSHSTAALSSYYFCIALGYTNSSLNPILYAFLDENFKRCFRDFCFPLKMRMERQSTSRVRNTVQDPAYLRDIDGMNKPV
Sequence of human mOR (P35372 whole entry): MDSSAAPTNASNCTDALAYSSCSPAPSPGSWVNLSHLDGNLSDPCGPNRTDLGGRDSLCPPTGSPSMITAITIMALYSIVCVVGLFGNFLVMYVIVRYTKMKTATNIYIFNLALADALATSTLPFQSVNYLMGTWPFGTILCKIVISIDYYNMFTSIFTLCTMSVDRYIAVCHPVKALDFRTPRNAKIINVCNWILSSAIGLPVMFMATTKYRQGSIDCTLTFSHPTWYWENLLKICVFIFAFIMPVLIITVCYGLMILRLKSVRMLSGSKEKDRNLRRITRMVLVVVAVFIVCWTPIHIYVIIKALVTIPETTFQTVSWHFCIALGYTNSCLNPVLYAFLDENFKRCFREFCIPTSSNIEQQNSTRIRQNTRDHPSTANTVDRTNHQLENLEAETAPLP

By pIC50 is commonly meant the negative decadic logarithm of the IC50, by convention in mol/L. A word on the pEC50: it is the negative decadic logarithm of the EC50, by convention in mol/L. Regarding `Cc1cc(C(N)=O)cc(C)c1C[C@@H](CNC(=O)C[C@@H](c1ccccc1)C(C)C)N(C)C` [Compound 10, 4-((S)-2-(dimethylamino)-3-((R)-4-methyl-3-phenylpentanamido)propyl)-3,5-dimethylbenzamide], the pIC50 at human mOR and at kOR (OPRK1) was greater than 6.52 throughout. Moreover, the pEC50 on human dOR is less than 5.52.
For `Cc1cc(C(N)=O)cc(C)c1C[C@@H](CNC(=O)C[C@@H](c1ccccc1)C1CC1)N(C)C` [Compound 11, 4-((S)-3-((R)-3-cyclopropyl-3-phenylpropanamido)-2-(dimethylamino)propyl)-3,5-dimethylbenzamide], the pIC50 on human mOR and against kOR (OPRK1) was greater than 6.52 throughout. The pEC50 at human dOR is less than 5.52.
On to `Cc1cc(C(N)=O)cc(C)c1C[C@@H](CNC(=O)C[C@@H](CC(C)C)c1ccccc1)N(C)C` [Compound 12, 4-[(2S)-2-(dimethylamino)-3-[(3R)-5-methyl-3-phenylhexanamido]propyl]-3,5-dimethylbenzamide], for which the pIC50 on human mOR and against kOR (OPRK1) was greater than 6.52 throughout. The pEC50 at human dOR was less than 5.52.
`Cc1ccc([C@@H](CC(=O)NC[C@H](Cc2ccc(C(N)=O)c(F)c2Cl)N(C)C)C2(C(F)(F)F)CC2)cn1` [Compound 20, 3-chloro-4-((S)-2-(dimethylamino)-3-((R)-3-(6-methylpyridin-3-yl)-3-(1-(trifluoromethyl)cyclopropyl)propanamido)propyl)-2-fluorobenzamide]: the pIC50 is greater than 6.52 on human mOR (CHO Tag-lite human mOR stable cell line, forskolin 4 μM and DAMGO at EC90, read-out: mOR cAMP Antagonist Assay IC50); greater than 6.52 against kOR (OPRK1). Further, the pEC50 on human dOR was 5.52 to 6.52.
Consider `Cc1ncc([C@@H](CC(=O)NC[C@H](Cc2ccc(C(N)=O)c(F)c2Cl)N(C)C)C2(C(F)(F)F)CC2)cn1` [Compound 21, 3-chloro-4-[(2S)-2-(dimethylamino)-3-[(3R)-3-(2-methylpyrimidin-5-yl)-3-[1-(trifluoromethyl)cyclopropyl]propanamido]propyl]-2-fluorobenzamide], for which the pIC50 at human mOR and against kOR (OPRK1) was greater than 6.52 in each case. Besides, at human dOR, the pEC50 is 5.52 to 6.52.
As to `CN(C)[C@H](CNC(=O)C[C@H](c1ccccc1)C1(C(F)(F)F)CC1)Cc1ccc(C(N)=O)cc1Cl` [Compound 39, 3-chloro-4-[(2S)-2-(dimethylamino)-3-[(3R)-3-phenyl-3-[1-(trifluoromethyl)cyclopropyl]propanamido]propyl]benzamide], the pIC50 at human mOR and against kOR (OPRK1) was greater than 6.52 throughout. Moreover, at human dOR, the pEC50 is less than 5.52.
Take `Cc1ncc([C@@H](CC(=O)NC[C@H](Cc2ccc(C(N)=O)c(F)c2)N(C)C)C2(C(F)(F)F)CC2)cn1` [Compound 68, 4-((S)-2-(dimethylamino)-3-((R)-3-(2-methylpyrimidin-5-yl)-3-(1-(trifluoromethyl)cyclopropyl)propanamido)propyl)-2-fluorobenzamide]: the pIC50 at human mOR and against kOR (OPRK1) was greater than 6.52 in each case. For the same compound, the pEC50 on human dOR was less than 5.52.
As for `CN(C)[C@H](CNC(=O)C[C@H](c1ccccc1)C1(C(F)(F)F)CC1)Cc1ccc(C(N)=O)c(F)c1` [Compound 77, 4-((S)-2-(dimethylamino)-3-((R)-3-phenyl-3-(1-(trifluoromethyl)cyclopropyl)propanamido)propyl)-2-fluorobenzamide], the pIC50 on human mOR and at kOR (OPRK1) was greater than 6.52 each time. Also, the pEC50 at human dOR was less than 5.52.
For `CN(C)[C@H](CNC(=O)C[C@H](c1ccc(Cl)c(Cl)c1)C1(C(F)(F)F)CC1)Cc1ccc(C(N)=O)cc1` [Compound 80, 4-((S)-3-((R)-3-(3,4-dichlorophenyl)-3-(1-(trifluoromethyl)cyclopropyl)propanamido)-2-(dimethylamino)propyl)benzamide], the pIC50 on human mOR and at kOR (OPRK1) was greater than 6.52 throughout. In addition, the pEC50 on human dOR is greater than 6.52.
For the compound `CN(C)[C@H](CNC(=O)C[C@@H](c1ccccc1)C1(C(F)(F)F)CC1)Cc1ccc(C(N)=O)cc1` [Compound 88, 4-[(2S)-2-(dimethylamino)-3-[(3S)-3-phenyl-3-[1-(trifluoromethyl)cyclopropyl]propanamido]propyl]benzamide], the pIC50 at human mOR and against kOR (OPRK1) was greater than 6.52 throughout. Moreover, the negative-log EC50 (pEC50) on human dOR was greater than 6.52.
`CN(C)[C@H](CNC(=O)C[C@H](c1ccccc1)C1(C(F)(F)F)CC1)Cc1ccc(C(N)=O)cc1` [Compound 89, 4-[(2S)-2-(dimethylamino)-3-[(3R)-3-phenyl-3-[1-(trifluoromethyl)cyclopropyl]propanamido]propyl]benzamide]: the pIC50 on human mOR and against kOR (OPRK1) was greater than 6.52 each time. In addition, the pEC50 at human dOR was greater than 6.52.
With `CN(C)[C@H](CNC(=O)C[C@H](CC1CCC1)c1ccccc1)Cc1ccc(C(N)=O)cc1` [Compound 90, 4-[(2S)-3-[(3S)-4-cyclobutyl-3-phenylbutanamido]-2-(dimethylamino)propyl]benzamide], the pIC50 on human mOR and at kOR (OPRK1) was greater than 6.52 in each case. Besides, the pEC50 at human dOR was greater than 6.52.
For the compound `CC(C)C[C@@H](CC(=O)NC[C@H](Cc1ccc(C(N)=O)cc1)N(C)C)c1ccccc1` [Compound 91, 4-[(2S)-2-(dimethylamino)-3-[(3S)-5-methyl-3-phenylhexanamido]propyl]benzamide], the pIC50 on human mOR and against kOR (OPRK1) was greater than 6.52 in each case. In addition, on human dOR, the pEC50 was greater than 6.52.
For the compound `CC(C)C[C@H](CC(=O)NC[C@H](Cc1ccc(C(N)=O)cc1)N(C)C)c1ccccc1` [Compound 96, 4-((S)-2-(dimethylamino)-3-((R)-5-methyl-3-phenylhexanamido)propyl)benzamide], the pIC50 at human mOR and on kOR (OPRK1) was greater than 6.52 each time. Also, the pEC50 at human dOR is greater than 6.52.
On to `CN(C)[C@H](CNC(=O)C[C@@H](c1ccccc1)C1CC1)Cc1ccc(C(N)=O)cc1` [Compound 97, 4-((S)-3-((R)-3-cyclopropyl-3-phenylpropanamido)-2-(dimethylamino)propyl)benzamide], for which the pIC50 at human mOR and against kOR (OPRK1) was greater than 6.52 throughout. The pEC50 at human dOR was greater than 6.52.
Take `CNC(=O)c1ccc(C[C@@H](CNC(=O)C[C@H](c2cc(F)cc(F)c2)C2(C(F)(F)F)CC2)N(C)C)c(C)c1` [Compound 136, 4-((S)-3-((R)-3-(3,5-difluorophenyl)-3-(1-(trifluoromethyl)cyclopropyl)propanamido)-2-(dimethylamino)propyl)-N,3-dimethylbenzamide]: the pIC50 on human mOR and on kOR (OPRK1) was greater than 6.52 throughout. In addition, the pEC50 at human dOR is 5.52 to 6.52.
For the compound `CNC(=O)c1ccc(C[C@@H](CNC(=O)C[C@H](c2ccc(Cl)cc2)C2(C(F)(F)F)CC2)N(C)C)c(C)c1` [Compound 142, 4-((S)-3-((R)-3-(4-chlorophenyl)-3-(1-(trifluoromethyl)cyclopropyl)propanamido)-2-(dimethylamino)propyl)-N,3-dimethylbenzamide], the pIC50 on human mOR and on kOR (OPRK1) was greater than 6.52 throughout. Also, at human dOR, the pEC50 is less than 5.52.
Turning to `CNC(=O)c1ccc(C[C@@H](CNC(=O)C[C@H](c2ccccc2)C2(C(F)(F)F)CC2)N(C)C)c(C)c1` [Compound 143, 4-((S)-2-(dimethylamino)-3-((R)-3-phenyl-3-(1-(trifluoromethyl)cyclopropyl)propanamido)propyl)-N,3-dimethylbenzamide], the pIC50 at human mOR and on kOR (OPRK1) was greater than 6.52 each time. On human dOR, the pEC50 is less than 5.52.

Values taken from patent US11634396B2 (priority 2021, dated 2023).
